Laboratory results taken from US20170342025A1, “ANTIMICROBIAL COMPOUNDS, COMPOSITIONS AND METHODS” (Swansea University, priority 2014, published 2017).
Where two headings read alike, the source gives them in different places.

Assays:
[1] = test system: Staphylococcus aureus (strain 9518); assay: MIC determination against Staphylococcus aureus (Andrews protocol); type: cell-based; conditions: for MIC: Staphylococcus aureus, read-out: MIC S. aureus
Description: (§1) Minimum Inhibitory Concentrations (MICs) for the compounds prepared were determined against Escherichia coli (strain JM109) and Staphylococcus aureus (strain 9518) using the protocols described by Andrews (J. Antimicrob. Chemother., 2001, 48, Suppl. S1, 5-16).

[2] = test system: Escherichia coli (strain JM109); assay: MIC determination against Escherichia coli (Andrews protocol); type: cell-based; conditions: for MIC: Escherichia coli, read-out: MIC E. coli
Description: as §1

[3] = test system: methicillin-resistant staphylococcus aureus (MRSA) strain MRSA-III (ST239); assay: MIC against MRSA strain MRSA-III (ST239); type: cell-based; conditions: read-out: MIC against MRSA-III
Description: as §1
(§2) In addition, three compounds were tested against methicillin-resistant staphylococcus aureus (MRSA) strains MRSA-III (ST239) and EMRSA-15.

[4] = test system: methicillin-resistant staphylococcus aureus (MRSA) strain EMRSA-15; assay: MIC against MRSA strain EMRSA-15; type: cell-based
Description: as §1, §2

[5] = Staphylococcus aureus strain 9518
[6] = second MRSA strain, text names EMRSA-15, read-out: MIC against MRSA-1

| Compound | MIC [1, 5] | melting point | MIC ([2]; Escherichia coli strain JM109) | other results |
| --- | --- | --- | --- | --- |
| N=C(N)NCc1cccc(OCc2cccc(C(F)(F)F)c2Cl)c1.O=C(O)C(F)(F)F [Compound 4L, 1-[(3-{[2-chloro-3-(trifluoromethyl)phenyl]methoxy}phenyl)methyl]guanidine 2,2,2-trifluoroacetate] | – | – | – | MIC [1]: 10 to 32 µg/mL; MIC [2]: 1 to 10 µg/mL; MIC ([3]; MRSA): 1 to 10 µg/mL; MIC ([4]; MRSA, read-out: MIC against MRSA-1): 1 to 10 µg/mL |
| N=C(N)NCc1ccc(OCc2cccc(Cl)c2Cl)cc1.O=C(O)C(F)(F)F [Compound 19e, 1-(4-((2,3-dichlorobenzyl)oxy)benzyl)guanidine 2,2,2-trifluoroacetate] | 10 to 32 µg/mL | – | 1 to 10 µg/mL | MIC ([3]; MRSA-III (ST239)): 1 to 10 µg/mL; MIC [4, 6]: 1 to 10 µg/mL |
| COc1cccc(COc2cccc(/C=N/NC(=N)N)c2Cl)c1Cl.Cl [Compound 51a, (E)-Amino(2-(2-chloro-3-((2-chloro-3-methoxybenzyl)oxy)benzylidene) hydrazinyl)methaniminium chloride] | 32 to 100 µg/mL | 258 to 260 °C | 32 to 100 µg/mL | – |

Second part, led by results:

| MIC [1, 5] | melting point | MIC ([2]; Escherichia coli strain JM109) | Compound | other results |
| --- | --- | --- | --- | --- |
| 1 to 10 µg/mL | 159 to 160 °C | 1 to 10 µg/mL | CC(=O)O.N=C(N)NN=Cc1cccc(OCc2cccc(Cl)c2Cl)c1 [Compound 49a, 1-[({3-[(2,3-dichlorophenyl)methoxy]phenyl}methylidene)amino]guanidine acetate] | MIC ([3]; MRSA-III (ST239)): 1 to 10 µg/mL; MIC [4, 6]: 1 to 10 µg/mL |
| 1 to 10 µg/mL | 237 to 239 °C | 1 to 10 µg/mL | Cl.N=C(N)N/N=C/c1cccc(OCc2ccc(Cl)cc2)c1Cl [Compound 51c, (E)-Amino(2-(2-chloro-3-((4-chlorobenzyl)oxy)benzylidene)hydrazinyl) methaniminium chloride] | – |
| 32 to 100 µg/mL | 274 to 277 °C | 1 to 10 µg/mL | Cl.N=C(N)N/N=C/c1cccc(OCc2cccc(C(F)(F)F)c2Cl)c1Cl [Compound 51e, (E)-Amino(2-(2-chloro-3-((2-chloro-3-(trifluoromethyl)benzyl)oxy)benzylidene) hydrazinyl)methaniminium chloride] | – |
| – | 176 to 179 °C | – | Cl.N=C(N)N/N=C/c1cccc(OCc2ccc(C(F)(F)F)cc2)c1 [Compound 49d, (E)-Amino(2-(3-((4-(trifluoromethyl)benzyl)oxy)benzylidene) hydrazinyl) methaniminium chloride] | MIC S. aureus [1, 5]: ++ (MIC 10-32 μg/mL); MIC E. coli ([2]; Escherichia coli strain JM109): +++ (MIC 1-10 μg/mL) |
